Assay results: the NIST ThermoML archive (doi:10.1016/j.jct.2017.05.001)

Test: wn = mass fraction of the nth substance listed
Settings: Liquid; for mass density: Vibrating tube method

OCCNCCO [diethanolamine] + O
mass density [kg/m3]
Settings | w1 = 0.0993 | w1 = 0.2 | w1 = 0.3002 | w1 = 0.3997
333.15 K, 130000 kPa | 1041.7 | 1050.9 | 1060.6 | 1070.8
333.15 K, 140000 kPa | 1045 | 1054.1 | 1063.7 | 1074
353.15 K, 100 kPa | 981.9 | 992.4 | 1003 | 1013.9
353.15 K, 500 kPa | 982 | 992.5 | 1003.1 | 1014
353.15 K, 1000 kPa | 982.2 | 992.7 | 1003.4 | 1014.2
353.15 K, 2000 kPa | 982.6 | 993.1 | 1003.7 | 1014.5
353.15 K, 5000 kPa | 983.9 | 994.4 | 1005 | 1015.8
353.15 K, 10000 kPa | 986.1 | 996.5 | 1007.1 | 1017.8
353.15 K, 15000 kPa | 988.2 | 998.6 | 1009.1 | 1019.8
353.15 K, 20000 kPa | 990.3 | 1000.6 | 1011.1 | 1021.8
353.15 K, 30000 kPa | 994.4 | 1004.7 | 1015.1 | 1025.7
353.15 K, 40000 kPa | 998.5 | 1008.5 | 1018.9 | 1029.4
353.15 K, 50000 kPa | 1002.4 | 1012.4 | 1022.6 | 1033
353.15 K, 60000 kPa | 1006.2 | 1016.3 | 1026.4 | 1036.7
353.15 K, 70000 kPa | 1010 | 1019.8 | 1029.9 | 1040.2
353.15 K, 80000 kPa | 1013.7 | 1023.4 | 1033.4 | 1043.6
353.15 K, 90000 kPa | 1017.3 | 1026.9 | 1036.8 | 1047
353.15 K, 100000 kPa | 1020.9 | 1030.4 | 1040.1 | 1050.4
353.15 K, 110000 kPa | 1024.4 | 1033.8 | 1043.5 | 1053.6
353.15 K, 120000 kPa | 1027.8 | 1037.1 | 1046.8 | 1056.8
353.15 K, 130000 kPa | 1031.1 | 1040.5 | 1050 | 1060
353.15 K, 140000 kPa | 1034.4 | 1043.6 | 1053.1 | 1063
373.15 K, 100 kPa | 968.1 | 978.3 | 988.7 | 999.2
373.15 K, 500 kPa | 968.3 | 978.6 | 988.9 | 999.4
373.15 K, 1000 kPa | 968.6 | 978.8 | 989.2 | 999.6
373.15 K, 2000 kPa | 969.1 | 979.3 | 989.6 | 1000.1
373.15 K, 5000 kPa | 970.4 | 980.6 | 990.9 | 1001.4
373.15 K, 10000 kPa | 972.7 | 982.8 | 993.2 | 1003.6
373.15 K, 15000 kPa | 974.9 | 985 | 995.3 | 1005.7
373.15 K, 20000 kPa | 977.1 | 987.2 | 997.4 | 1007.8
373.15 K, 30000 kPa | 981.4 | 991.5 | 1001.6 | 1012
373.15 K, 40000 kPa | 985.7 | 995.6 | 1005.7 | 1016
373.15 K, 50000 kPa | 989.7 | 999.5 | 1009.5 | 1019.8
373.15 K, 60000 kPa | 993.6 | 1003.5 | 1013.4 | 1023.6
373.15 K, 70000 kPa | 997.5 | 1007.3 | 1017.2 | 1027.3
373.15 K, 80000 kPa | 1001.4 | 1011.1 | 1020.9 | 1031
373.15 K, 90000 kPa | 1005.1 | 1014.7 | 1024.4 | 1034.5
373.15 K, 100000 kPa | 1008.8 | 1018.3 | 1028 | 1038
373.15 K, 110000 kPa | 1012.4 | 1021.9 | 1031.5 | 1041.4
373.15 K, 120000 kPa | 1015.9 | 1025.3 | 1034.9 | 1044.8
373.15 K, 130000 kPa | 1019.4 | 1028.7 | 1038.2 | 1048.1
373.15 K, 140000 kPa | 1022.7 | 1032 | 1041.5 | 1051.3
393.15 K, 100 kPa | 952.6 | 962.8 | 972.9 | 983.2
393.15 K, 500 kPa | 952.9 | 963.2 | 973.2 | 983.5
393.15 K, 1000 kPa | 953.1 | 963.3 | 973.4 | 983.7
393.15 K, 2000 kPa | 953.6 | 963.8 | 973.9 | 984.2
393.15 K, 5000 kPa | 955.1 | 965.2 | 975.3 | 985.6
393.15 K, 10000 kPa | 957.5 | 967.7 | 977.7 | 988
393.15 K, 15000 kPa | 959.9 | 969.9 | 980 | 990.3
393.15 K, 20000 kPa | 962.3 | 972.3 | 982.4 | 992.7
393.15 K, 30000 kPa | 966.8 | 976.8 | 986.9 | 997.1
393.15 K, 40000 kPa | 971.3 | 981.3 | 991.2 | 1001.4
393.15 K, 50000 kPa | 975.4 | 985.4 | 995.3 | 1005.4
393.15 K, 60000 kPa | 979.7 | 989.6 | 999.4 | 1009.6
393.15 K, 70000 kPa | 984 | 993.8 | 1003.6 | 1013.6
393.15 K, 80000 kPa | 987.9 | 997.6 | 1007.3 | 1017.3
393.15 K, 90000 kPa | 991.7 | 1001.5 | 1011.2 | 1021.2
393.15 K, 100000 kPa | 995.5 | 1005.2 | 1014.8 | 1024.8
393.15 K, 110000 kPa | 999.4 | 1008.9 | 1018.5 | 1028.5
393.15 K, 120000 kPa | 1003.1 | 1012.6 | 1022.1 | 1032
393.15 K, 130000 kPa | 1006.6 | 1016.1 | 1025.5 | 1035.4
393.15 K, 140000 kPa | 1010.1 | 1019.5 | 1029.1 | 1038.9

viscosity [mPa·s]
Settings | w1 = 0.0993 | w1 = 0.1 | w1 = 0.2 | w1 = 0.3 | w1 = 0.3002 | w1 = 0.3997 | w1 = 0.4
353.15 K, 100 kPa, Concentric cylinders viscometry | – | 0.474 | 0.627 | 0.866 | – | – | 1.244
353.15 K, 100 kPa, Falling or rolling sphere viscometry | 0.4595 | – | 0.6088 | – | 0.8528 | 1.226 | –
353.15 K, 5000 kPa, Falling or rolling sphere viscometry | 0.4583 | – | 0.6083 | – | 0.8459 | 1.231 | –
353.15 K, 10000 kPa, Falling or rolling sphere viscometry | 0.4614 | – | 0.6136 | – | 0.8544 | 1.239 | –
353.15 K, 15000 kPa, Falling or rolling sphere viscometry | 0.4631 | – | 0.6167 | – | 0.8578 | 1.247 | –
353.15 K, 20000 kPa, Falling or rolling sphere viscometry | 0.464 | – | 0.6198 | – | 0.8642 | 1.255 | –
353.15 K, 25000 kPa, Falling or rolling sphere viscometry | 0.4671 | – | 0.6239 | – | 0.8704 | 1.264 | –
353.15 K, 30000 kPa, Falling or rolling sphere viscometry | 0.4692 | – | 0.6271 | – | 0.8768 | 1.275 | –
353.15 K, 40000 kPa, Falling or rolling sphere viscometry | 0.4733 | – | 0.6333 | – | 0.8887 | 1.292 | –
353.15 K, 60000 kPa, Falling or rolling sphere viscometry | 0.4815 | – | 0.646 | – | 0.9096 | 1.335 | –
353.15 K, 80000 kPa, Falling or rolling sphere viscometry | 0.4886 | – | 0.6588 | – | 0.9309 | 1.371 | –
353.15 K, 100000 kPa, Falling or rolling sphere viscometry | 0.4971 | – | 0.6731 | – | 0.9514 | 1.409 | –
373.15 K, 5000 kPa, Falling or rolling sphere viscometry | 0.3586 | – | 0.4622 | – | 0.6145 | 0.8545 | –
373.15 K, 10000 kPa, Falling or rolling sphere viscometry | 0.3611 | – | 0.4646 | – | 0.6194 | 0.863 | –
373.15 K, 15000 kPa, Falling or rolling sphere viscometry | 0.3635 | – | 0.467 | – | 0.6247 | 0.8727 | –
373.15 K, 20000 kPa, Falling or rolling sphere viscometry | 0.3652 | – | 0.4698 | – | 0.6304 | 0.8808 | –
373.15 K, 25000 kPa, Falling or rolling sphere viscometry | 0.3672 | – | 0.4729 | – | 0.6353 | 0.889 | –
373.15 K, 30000 kPa, Falling or rolling sphere viscometry | 0.3689 | – | 0.4761 | – | 0.6417 | 0.9 | –
373.15 K, 40000 kPa, Falling or rolling sphere viscometry | 0.3724 | – | 0.482 | – | 0.6515 | 0.9123 | –
373.15 K, 60000 kPa, Falling or rolling sphere viscometry | 0.3807 | – | 0.492 | – | 0.6676 | 0.9445 | –
373.15 K, 80000 kPa, Falling or rolling sphere viscometry | 0.3871 | – | 0.5046 | – | 0.6851 | 0.9763 | –
373.15 K, 100000 kPa, Falling or rolling sphere viscometry | 0.3943 | – | 0.5153 | – | 0.7019 | 1.003 | –
393.15 K, 5000 kPa, Falling or rolling sphere viscometry | 0.2926 | – | 0.3644 | – | 0.4675 | 0.6194 | –
393.15 K, 10000 kPa, Falling or rolling sphere viscometry | 0.2943 | – | 0.3676 | – | 0.4721 | 0.6265 | –
393.15 K, 15000 kPa, Falling or rolling sphere viscometry | 0.2964 | – | 0.37 | – | 0.4778 | 0.6495 | –
393.15 K, 20000 kPa, Falling or rolling sphere viscometry | 0.2989 | – | 0.3724 | – | 0.4809 | 0.6555 | –
393.15 K, 25000 kPa, Falling or rolling sphere viscometry | 0.301 | – | 0.3748 | – | 0.4848 | 0.6626 | –
393.15 K, 30000 kPa, Falling or rolling sphere viscometry | 0.3024 | – | 0.3769 | – | 0.4908 | 0.6682 | –
393.15 K, 40000 kPa, Falling or rolling sphere viscometry | 0.3047 | – | 0.3818 | – | 0.4967 | 0.681 | –
393.15 K, 60000 kPa, Falling or rolling sphere viscometry | 0.3113 | – | 0.3919 | – | 0.5122 | 0.7072 | –
393.15 K, 80000 kPa, Falling or rolling sphere viscometry | 0.3178 | – | 0.4017 | – | 0.527 | 0.7305 | –
393.15 K, 100000 kPa, Falling or rolling sphere viscometry | 0.3233 | – | 0.4114 | – | 0.5417 | 0.7538 | –
